In ChEMBL document CHEMBL1149931, “4-(2-pyridyl)-2,2-dimethylnaphthalen-1-ones as new potassium channel activators with increased airways selectivity” (Bioorg Med Chem Lett, 1995):

Key:
[1] = species: Cavia porcellus; assay: Compound was evaluated for its hypotensive activity (decrease in blood pressure) in male guinea pigs.; type: functional
[2] = tested on: Cavia porcellus; assay: Compound was evaluated in vivo for its ability to inhibit methacholine induced bronchospasm in male guinea pig.; type: functional
[3] = species: Cavia porcellus; assay: Concentration required to inhibit spontaneous tone of guinea pig isolated tracheal spirals; type: functional; conditions: Trachea
[4] = species: Rattus norvegicus; assay: Concentration required to inhibit NA-induced contractions in rat portal vein by 50%; type: functional
[5] = tested on: Rattus norvegicus; assay: Changes in systolic blood pressure was measured at intervals of 1 hr for 4 hr after oral administration of 0.1 mg/kg in rats; type: functional, Artery
[6] = species: Rattus norvegicus; assay: Compound was evaluated for its hypotensive activity (decrease in blood pressure) in normotensive rats.; type: functional
[7] = species: Rattus norvegicus; assay: Percent inhibition of NA-induced contractions in rat portal vein at 10 uM was evaluated; type: functional; conditions: for inhibition at 10 µM: Rattus norvegicus

SMILES	ED25 [1] [mg/kg]	ED50 [2] [mg/kg]	IC50 [3] [nM]	IC50 [4] [nM]	Max fall in blood pressure [5] [mmHg]	ED25 [6] [mg/kg]	ED25 [2] [mg/kg]	inhibition at 10 µM [7] [%]	Inhibition [7] [%]
CC1(C)C=C(c2cccc[n+]2[O-])c2cc(Br)ccc2C1=O	0.0891	0.148	230	810	53	0.0877			
CC1(C)C=C(c2cccc[n+]2[O-])c2cc(C#N)ccc2C1=O	0.0647		200	900		0.079	0.0303		
CC1(C)Oc2ccc(C#N)cc2[C@H](N2CCCC2=O)[C@H]1O (single isomer, unassigned) [(-)-CROMAKALIM]	0.0075		280	100		0.0215	0.0162		
COC1(c2cccc[n+]2[O-])CC(C)(C)C(=O)c2ccc(Br)cc21 (stereo not drawn)			> 10000					20	
CC1(C)C(=O)c2ccc(Br)cc2C2(c3cccc[n+]3[O-])OC12 (stereo not drawn)			1700						12
CC1(C)CC(O)(c2cccc[n+]2[O-])c2cc(C#N)ccc2C1=O (stereo not drawn)			7300					30	
CC1(C)C=C(c2cccc[n+]2[O-])c2cc(Cl)c(Cl)cc2C1=O	0.0933	0.0912	210	470	74	0.079			
CC1(C)C=C(c2cccc[n+]2[O-])c2cc(C(F)(F)C(F)(F)F)ccc2C1=O	0.0876		110	590		0.776	0.036		
CC1(C)C=C(c2ccccn2)c2cc(Br)ccc2C1=O			> 10000	48000					
CC1(C)CC(c2cccc[n+]2[O-])c2cc(C#N)ccc2C1=O (stereo not drawn)			2500	160	99.5				
